One experiment concerns Plasmodium falciparum. Put plainly: Antiplasmodial activity against chloroquine-resistant Plasmodium falciparum K1 infected in human RBC after 48 hrs by [3H]-hypoxanthine incorporation assay. The class given is functional, organism-based.
The test system of a further experiment is Trypanosoma cruzi. Put plainly: Antitrypanosomal activity against Trypanosoma cruzi Tulahuen C4. The class given is functional, organism-based.
Experiment [1] relates to Trypanosoma brucei rhodesiense. Put plainly: Antitrypanosomal activity against Trypanosoma brucei rhodesiense STIB 900 after 72 hrs by Alamar blue assay. The experiment is classed as functional, organism-based. The following applies: STIB 900, 72 h. (In general: The colour change of resazurin is a common sign of viable cells or microbes.)
The subject of a further experiment is L6. Put plainly: Cytotoxicity against rat L6 cells after 72 hrs by Alamar blue assay. The class given is cell-based. The note with it: L6, 72 h.
The test system of the next experiment is Leishmania donovani. Put plainly: Antileishmanial activity against Leishmania donovani MHOM-ET-67/L82. The experiment is classed as functional, organism-based.

Our source for the IC50 values is ChEMBL document CHEMBL3120140, “Balgacyclamides, antiplasmodial heterocyclic peptides from Microcystis aeruguinosa EAWAG 251” (J Nat Prod, 2014).

The IC50 is the midpoint of a concentration-inhibition curve. Low readings indicate greater potency, high ones weaker potency.

As to `CC[C@H](C)[C@H]1NC(=O)[C@H]2N=C(O[C@@H]2C)[C@H](C(C)C)NC(=O)[C@H]([C@@H](C)O)NC(=O)[C@@H](C)NC(=O)c2csc1n2`, the IC50 in the experiment on Plasmodium falciparum was 8.2 µM; with Trypanosoma cruzi, over 150 µM; in experiment [1] it was 51 µM; in the experiment on L6 it was over 150 µM; in the experiment on Leishmania donovani, 28 µM.

Turning to `CC[C@H](C)[C@H]1NC(=O)[C@H]2N=C(O[C@@H]2C)[C@H](C(C)C)NC(=O)[C@H]2N=C(O[C@@H]2C)[C@@H](C)NC(=O)c2csc1n2`, the IC50 with Plasmodium falciparum is 9 µM; with Trypanosoma cruzi it was over 150 µM; in experiment [1], 59 µM; with L6, over 150 µM; in the experiment with Leishmania donovani it was over 150 µM.
